According to publication PMC13422867, “An orally available PfPKG inhibitor blocks Plasmodium’s infection of the liver” (PLOS Pathogens, 2026):
pIC50: −log10 of the molar value. Like-named read-outs stand apart in the source and are kept apart here.

Columns and labels:
P. falciparum 3D7 = test: Asexual blood stage growth inhibition, SYBR Green I, 72 h; format: cell-based; settings: Plasmodium falciparum, mean (standard error) of 3 biological replicates
Procedure: (§1) Asexual blood stage P. falciparum strains, including 3D7 and drug-resistant field isolates, were cultured using standard conditions in RPMI 1640 with 0.5% Albumax as described previously. EC₅₀ values were determined using a SYBR Green I fluorescence assay after 72 h of compound exposure. EC50 values were derived by nonlinear regression in GraphPad Prism version 10.

P. falciparum 7G8 = test: as above; format: cell-based; settings: Plasmodium falciparum, mean (standard error) of 3 biological replicates
Procedure: as §1

P. falciparum K1 = test: as above; format: cell-based; settings: Plasmodium falciparum, mean (standard error) of 3 biological replicates
Procedure: as §1

P. falciparum TM90_C2B = test: as above; format: cell-based; settings: Plasmodium falciparum, mean (standard error) of 3 biological replicates
Procedure: as §1

[1] = system: P. falciparum sporozoites; test: Sporozoite infection of primary human hepatocytes, high-content imaging; format: cell-based, Plasmodium falciparum; settings: Plasmodium falciparum, Hepatocyte
Procedure: Liver stage antimalarial activity was evaluated using sporozoites from P. falciparum (NF54 strain) and P. cynomolgi bastianellii (B strain). P. falciparum-infected Anopheles stephensi mosquitoes were reared at WRAIR, while P. cynomolgi-infected Anopheles dirus mosquitoes were obtained from the Armed Forces Research Institute of Medical Sciences (AFRIMS), Thailand. Sporozoites were isolated by dissecting salivary glands under sterile conditions, followed by gentle mechanical disruption. Freshly isolated sporozoites were immediately used for hepatocyte infection. […]
(§2) Cells were fixed using 4% paraformaldehyde for 20 minutes at room temperature, followed by three PBS washes, and stored at 4°C until further processing. Parasite detection was performed using species-specific primary antibodies, with P. cynomolgi parasites labeled using a mouse monoclonal anti-Plasmodium GAPDH antibody (1.6 μg/mL, European Malaria Reagent Repository) and P. falciparum parasites detected using a rabbit polyclonal anti-PfHSP70 antibody (1:70 dilution, LS Bio, USA). […]
(§3) High-content imaging was performed using the Operetta CLS system (Revvity) and image analysis was performed with Harmony software version 4.9 (Revvity, Waltham, MA, USA). Images were acquired at 10x or 20x magnification using DAPI and TRITC fluorescence channels. […]

P. cynomolgi schizont = test: Schizont formation in primary simian hepatocytes, high-content imaging; format: cell-based, Plasmodium cynomolgi; settings: Plasmodium cynomolgi, Hepatocyte
Procedure: Liver stage antimalarial activity was evaluated using sporozoites from P. falciparum (NF54 strain) and P. cynomolgi bastianellii (B strain). P. falciparum-infected Anopheles stephensi mosquitoes were reared at WRAIR, while P. cynomolgi-infected Anopheles dirus mosquitoes were obtained from the Armed Forces Research Institute of Medical Sciences (AFRIMS), Thailand. Sporozoites were isolated by dissecting salivary glands under sterile conditions, followed by gentle mechanical disruption. Freshly isolated sporozoites were immediately used for hepatocyte infection.
Primary cryopreserved hepatocytes were selected based on host-parasite compatibility: primary simian hepatocytes (lot OQB) for P. cynomolgi and human hepatocytes (lot BGW) for P. falciparum (BioIVT Inc., Baltimore, MD, USA). Cells were thawed according to the manufacturer’s protocol and seeded into 384-well collagen-coated assay plates (Greiner Bio-One, Monroe, NC, USA) using InVitroGro CP plating medium (BioIVT). Seeding densities were optimized for uniform monolayer formation, and hepatocytes were allowed to adhere for 24–48 hours before infection. Sporozoites were added at a 1:1.1 hepatocyte-to-sporozoite ratio within 48 hours post-seeding. Automated robotic systems were used for media changes and compound additions to ensure assay consistency and minimize variability associated with manual pipetting.
Test compounds (PfPKG inhibitors) and assay drug controls (KDU-691 and tafenoquine) were solubilized in DMSO or PBS and serially diluted into 8- or 12-point, 2- or 3-fold series, achieving final assay concentrations ranging from 20 µM to 0.019 µM. Compounds were introduced using a calibrated pin tool controlled by robotic arms (V&P Scientific), ensuring a 1:1000 dilution into assay wells. Media were replenished daily with fresh drug-containing HCM. […]
as §2
as §3, with “channels. Following the established protocol, parasites were classified as hypnozoites or schizonts based on fluorescence intensity (mean and maximum), morphological features (cell roundness and size), and segmentation criteria.” for “channels.”

[2] = Pharmacokinetics in mice after oral or intravenous dosing; format: in vivo
Procedure: Plasma concentrations were measured by LC-MS/MS. Non-compartmental PK parameters were calculated using Phoenix WinNonlin. Human half-life predictions were derived by allometric scaling for half-life (t1/2): t1/2,human = t1/2,mouse × (Whuman/Wmouse)^0.25, where W = body weight. The exponent 0.25 is commonly used for time-based pharmacokinetic parameters. We assume an average mouse weight of 0.025 kg and an average human weight of 70 kg.

[3] = system: P. berghei sporozoites (PbLuc-GFP); test: In vivo chemoprotective efficacy against sporozoite liver infection; set-up: species or system Plasmodium berghei in mice; settings: 10 mg/kg x 3; for Prepatent period mean ± sd: blood stages by flow cytometry
Procedure: In the first experiment, mice were administered three doses, intravenously (IV) or orally (PO), of compound (10 mg/kg) - two prior to sporozoite inoculation to block sporozoite invasion of hepatocytes and the third at 36 hpi to prevent egress of liver stages (Fig 3A). In vivo bioluminescent imaging (IVIS) of mice was utilized to detect and quantify relative parasitemia in the liver and flow cytometry was used to detect the appearance of blood stage parasites. Vehicle-treated mice were used as a negative control.
In vivo chemoprotective efficacy was evaluated using luciferase-expressing P. berghei ANKA sporozoites. […] Liver stage parasite burden was measured 42–48 h p.i. by bioluminescence imaging (IVIS Spectrum). Photon flux from the liver region was quantified using Living Image software. All animal procedures were approved by the Rutgers Institutional Animal Care and Use Committee (IACUC).

[4] = system: mutant P. falciparum parasites carrying a Thr618Gln substitution; settings: cited from earlier work
hERG = settings: in vitro; cited from earlier work
[5] = mouse, plasma, iv, 10 mg/kg, mice, IV 10 mg/kg, average of 3 mice
[6] = mouse, plasma, po, 10 mg/kg, mice, PO 10 mg/kg, average of 3 mice

## C[C@@H]1CN(C)CC[C@@H]1c1cc(-c2ccncc2)c(-c2ccc(F)cc2)[nH]1.Cl.Cl [RUPB-61, 4-{5-[(3S,4S)-1,3-Dimethylpiperidin-4-yl]-2-(4-fluorophenyl)-1H-pyrrol-3-yl}pyridine Dihydrochloride]
P. falciparum 3D7
  pIC50: 7.30
P. falciparum 7G8
  pIC50: 7.54
P. falciparum K1
  pIC50: 7.38
P. falciparum TM90_C2B
  pIC50: 6.86
[1]
  pIC50: 7.10
P. cynomolgi schizont
  pIC50: 6.77
[2]; exponent 0.25, mouse 0.025 kg, human 70 kg
  human half-life range by allometric scaling: 67.5 to 90 h
[2]; humans, scaled from mouse oral half-life
  half-life in humans by allometric scaling: 48 to 96 h
[2]; mice, 10 mg/kg, for 24 h
  plasma exposure maintained: > 100 nM
[2]; mice, IV 10 mg/kg, average of 3 mice, 10 mg/kg
  Vss obs: 47.29 L/kg
[2]; mice, PO vs IV 10 mg/kg, 10 mg/kg
  Bioavailability: 91 %F
[2]; [5]
  AUC(0-t): 7.43 µM·h
  half-life: 11.8 h
[2]; mouse, plasma, iv, 10 mg/kg, mice, IV 10 mg/kg, average of 3 mice, read-out: AUC INF_obs
  AUC(0-inf): 9.8 µM·h
[2]; mouse, plasma, iv, 10 mg/kg, mice, IV 10 mg/kg, average of 3 mice, read-out: Cl_obs
  clearance: 49.2 mL/min/kg
[2]; mouse, plasma, iv, 10 mg/kg, mice, IV 10 mg/kg, average of 3 mice, read-out: Vss obs
  Vd: 47.3 L/kg
[2]; mouse, plasma, other: oral and intravenous, 10 mg/kg, mice, 10 mg/kg oral and intravenous, read-out: relative clearance
  clearance: ~50 mL/min/kg
[2]; [6]
  Cmax: 630 nM
  Tmax: 4.17 h
[2]; mouse, plasma, po, 10 mg/kg, mice, PO 10 mg/kg, average of 3 mice, read-out: AUCINF_obs
  AUC(0-inf): 8.9 µM·h
[3]; IV or PO, 10 mice, bioluminescent imaging
  mice showing liver parasitemia as late as 144 hpi: none
[3]; IV or oral
  mice displaying blood stage parasites in the 3 week observation period: none
[3]; Intravenous
  No. of mice patent by D21/ No. of mice inoculated: 0/5
  Prepatent period mean ± sd: negative
[3]; Oral
  No. of mice patent by D21/ No. of mice inoculated: 0/5
  Prepatent period mean ± sd: negative
[4]
  increase in IC50 against Thr618Gln gatekeeper mutant parasites: 15 fold
hERG
  cardiovascular risk as judged by hERG inhibition: low preliminary cardiovascular risks
